Test results as given in US9828299B2, “Methods for rendering micellar coordination complexes safe for the treatment of plants and formulations for same” (Innovation Hammer LLC, priority 2012, dated 2017).

Key:
[1] = system: waxy foliar surfaces of oleander leaves; experiment: Effective spreading of water droplets on waxy foliar surfaces, determined visually; conditions: oleander leaf, visual determination
Excerpt: Experimental biology investigations show an exemplary synergism of EAA to random block copolymer (RBC) using the formulations of the invention to visually determine the effect of concentration of the compounds on the effective spreading of water droplets on waxy foliar surfaces of oleander leaves. The following is an exemplary effective spreading of water droplet on a waxy leaf based on EAA synergist: • Leaf Plant Type Effective water droplet spreading • RBC EAA RBC+EAA • Oleander 0.6% 1% 0.3%+0.86%

[2] = system: Petunia; experiment: Effective foliar application dose of safened ketoester formulations (synergism EAA/cosolvent); type: in vivo
[3] = Critical micelle concentration; type: physicochemical
Excerpt: Ketoesters also are a source of metabolizable micellar nanoparticles for transepidermal transport; i.e., at or above the CMC of a ketoester. For example, when applied to a leaf at or above the CMC 6.48 mol % of the β-ketoester, EAA is an effective wetter and spreader of water-based solutions. This is particularly true of EAA when applied at CMC on leaves of green plants. Furthermore, by bringing the ketoester to CMC, other compounds in solution synergistically rise to CMC. For example, in the embodiments disclosed herein, physical characteristics of the CMC of the ketoester, MAA, are applied to create zinc depots.

[4] = Solubility of ketoester coordination complex
Description: One suitable coordination complex may be made, for example, by dissolving 10 mg ferric nitrate nonahydrate, in 1 ml water with stirring at room temperature until the solution is clear with all crystals dissolved; to the aqueous iron solution, 1 ml MAA is added with rapid stirring for 5-50 minutes or more to allow formation of the coordination complex. […] Other compositions include the following: micellar ketoester-zinc-ketoester, Zn-MNP; and micellar ketoester-copper-ketoester, Cu-MNP.
A process for novel synthesis of an MNP from iron salt is as follows: The aqueous saturated solution of 1 g ferric chloride hexahydrate is dissolved in 10 ml EAA with rapid stirring for 1 minute or more to the formation of the coordination complex.

CCOC(=O)CC(C)=O [EAA, ethyl acetoacetate]
Effective water droplet spreading (concentration) [1]: 1% | effective foliar application dose [2]: 100 mM | CMC (critical micelle concentration) [3]: 6.48 mol %

CCOC(=O)CC(C)=O.[Fe+3] [Fe-EAA, ferric(III)-ethyl acetoacetate]
solubility in IPA ([4]; IPA): soluble | solubility in water ([4]; water): insoluble
